# Laboratory results published in US20260184700A1, “PDK1 REGULATORY COMPOUND AND COMPOSITION CONTAINING THE SAME” (PROVIBIO CO., LTD., priority 2024, published 2026).
# Key:
# [1] = system: HCT-116 colon cancer cell lines; assay: Invasion Assay using Matrigel, HCT-116; type: cell-based, human; conditions: HCT-116, Matrigel invasion, 24 hours treatment
# Procedure: To evaluate the metastasis inhibitory efficacy of the compounds of the present invention on HCT-116 colon cancer cell lines, an Invasion Assay using Matrigel was performed to assess the cells' invasion ability.
# First, Matrigel was thawed on ice in RPMI-1640 medium without FBS, then diluted with DMEM at a ratio of 1:20.
# The diluted Matrigel mixture was applied to the upper chamber at 100 μl per well, and 750 μl of RPMI-1640 without FBS was added to the lower chamber.
# The plates were then incubated at 37° C. for 1 hour to allow the Matrigel to solidify.
# After coating, the Matrigel mixture in the upper chamber was removed using a pipette, and the chamber was washed with RPMI without FBS.
# Human-derived colorectal cancer cell line HCT-116, obtained from the Korean Cell Bank, was cultured in RPMI-1640 medium containing 10% FBS.
# Following stabilization, the cells were harvested using Trypsin-EDTA treatment, centrifuged at 1,200 rpm for 3 minutes, the supernatant was removed, and the cells were resuspended in the same medium, the medium in the lower chamber was replaced with 750 μl of RPMI-1640 supplemented with 10% FBS, and the cells were seeded into the upper chamber at a density of 5×10^4 cells/well.
# The cells were cultured for 24 hours after attachment, and then the compounds according to the present invention (G078, G085, G086, G088, G089, PBK-2024-010, PBK-2025-010, PBK-2025-013, PBK-2025-016) and the control substance DMSO were diluted and added to the upper chamber after removing the medium.
# Additionally, the medium in the lower chamber was replaced with fresh RPMI-1640 containing FBS, and the culture was continued.
# After an additional 24 hours, the medium was removed, and 1 ml of methanol was added for 10 minutes to fix the cells.
# Subsequently, 1 ml of Hematoxylin was added and reacted for 5 minutes, followed by 1 ml of Eosin, which was reacted for 30 seconds. The sample was then washed with distilled water (DW).
# After staining was complete, any remaining cells in the upper chamber were removed. Finally, the infiltrated cells were observed under a microscope, photographed, and the degree of infiltration was analyzed.
# [2] = system: psoriasis-induced BALB/c mice; assay: Psoriasis animal model (Aldara cream, Imiquimod); type: in vivo, mouse
# Procedure: To verify the therapeutic effect of the compound according to the present invention on psoriasis, a psoriasis animal model was established as follows, and the compound according to the present invention was administered to evaluate the alleviation of skin lesions and changes in immune cell patterns.
# For the establishment of the psoriasis animal model, BALB/c mice (7 weeks old, female, 20 g) were purchased from HanabioTech Co., Ltd. and acclimatized to the rearing environment for one week.
# Subsequently, the hair on the mouse back was shaved using a hair removal device for the first time, and then completely shaved using a depilatory cream (Nicrin Cream (80% thioglycolic acid, Il Dong Pharmaceutical)) for the second time. The mice were then kept for 24 hours to confirm the absence of skin damage.
# To verify the psoriasis prevention and therapeutic effects of the compounds according to the present invention, the following experimental groups were established:
# [Normal control group (Normal, Not Treatment), psoriasis-induced control group (Psoriasis, Not Treatment), psoriasis-induced vehicle control group (Psoriasis, Vehicle), experimental group (GO85, GO86, GO88, GO89, PBK-2024-010, PBK-2024-026, PBK-2025-002, PBK-2025-004, PBK-2025-016, PBK-2025-017, PBK-2025-023)]. […]
# Body weights of mice in each group were measured on days 1, 4, and 8 after the start of injection and psoriasis induction. […]
# To evaluate the therapeutic effect in a psoriasis-induced mouse model, the PASI (Psoriasis Area and Severity Index) score was measured.
# The PASI score is based on three criteria: erythema, scaling, and skin thickness, each scored from 0 (none) to 4 (severe). […]
# Observations were conducted daily at the same time, and the same observer visually assessed each criterion and recorded the scores, with the results presented in FIG. 13. […]
# All samples were measured in duplicate, and the absorbance was measured at 450 nm using a microplate reader.
smiles,measurement,setting,value
"Nc1nc(NC(=O)CCCCCCCCCCCCN2CCN(CCO)CC2)nc2nc[nH]c12 [Compound 15, 12-[4-(2-hydroxyethyl)piperazin-1-yl]dodecyl-N-(6-aminopurine-2-yl)carboxamide]",number of infiltrated cells,[1],reduction in the number of infiltrated cells
same,efficacy in improving dermatological symptoms,[2],excellent efficacy in improving dermatological symptoms
